Test results taken from US11905272B1, “3-(2-(4-methoxypyridin-3-yl)-4,5-diphenyl-1H-imidazol-1-yl)-N,N-dimethylpropan-1-amine as an anti-cancer compound” (KING FAISAL UNIVERSITY, priority 2023, dated 2024).

Experiments:
[1] = test system: human prostate cancer cells (PC3); experiment: Assessment of cytotoxicity by SRB assay (PC3); type: cell-based; details: 0.01 μM to 100 μM, 72 h
Protocol: (§1) The human prostate cancer cells (PC3) and human osteosarcoma cells (MG-63) were obtained from Nawah Scientific Inc. (Mokatam, Cairo, Egypt) and cultured in DMEM (Dulbecco's modified eagle's medium), Gibco, USA, supplemented with fetal bovine serum (FBS) at a concentration of 10% and 100 U/mL of penicillin and streptomycin (PS). The Cells were incubated at 37° C. in a humidified environment that contained 5% CO2.
(§2) Cells were seeded in 96-well plates as aliquots of 100 μL cell suspension and incubated in a complete media for 24 h. Afterward, cells were treated with 3-(2-(4-methoxypyridin-3-yl)-4,5-diphenyl-1H-imidazol-1-yl)-N,N-dimethylpropan-1-amine at diverse concentrations ranging from 0.01 μM to 100 μM for 72 h. Then, cells were fixed at 4° C. for one hour with 150 μL of 10% trichloroacetic acid (TCA). After washing the cells five times with distilled water, 70 μL of sulforhodamine (SRB) solution (0.4% w/v) was added and incubated for 10 min at room temperature in a dark place. […] Then, 150 μL of Tris pH 10.5 (10 mM) was added, and the absorbance was measured at 540 nm using a BMG LABTECH®-FLUOstar Omega microplate reader (Ortenberg, Germany). Half maximal inhibitory concentrations (IC50) values were calculated for each experiment using GraphPad Prism 6 software. […]
(§3) The inhibition was calculated using the following equation: Inhibition %=100−Average Viability

[2] = test system: human osteosarcoma cells (MG-63); experiment: Assessment of cytotoxicity by SRB assay (MG-63); type: cell-based; details: 0.01 μM to 100 μM, 72 h
Protocol: as §1, §2, §3

COc1ccncc1-c1nc(-c2ccccc2)c(-c2ccccc2)n1CCCN(C)C [3-(2-(4-methoxypyridin-3-yl)-4,5-diphenyl-1H-imidazol-1-yl)-N,N-dimethylpropan-1-amine]
antiproliferative activity against cancer cells (PC3) [1]: excellent antiproliferative activities | melting point: 128 to 131 °C | antiproliferative activity against osteosarcoma (MG-63) cells [2]: excellent antiproliferative activities
